# Test results reported in PMC9671962 (Communications Biology, 2022).
# “And” between values parts separate entries of the source, which are not always exact repeats. Identical values can stand only once.
# Columns and labels:
# [1] = system: COG-N-471x; test: Pre-clinical efficacy study, COG-N-471x PDX; assay type: in vivo; details: 36 MBq/kg/fraction x 4 fractions, single mouse
# Description: (§1) Patient demographics and genetic characteristics are listed in (Supplementary Tables 1, 2)[17]. The maximum tolerated dose (MTD) was determined to be 36 MBq/kg administered by intra-peritoneal injection twice weekly for a total of 4 dose fractions and this fractionated regimen was used in all studies (Supplementary Fig. 1)[18],[19]. […] Nine of 11 PDX models were MYCN amplified (Fig. 1b), which is a hallmark of high-risk neuroblastoma. Tumor response was measured as the maximum percent decrease in tumor volume after treatment and event-free survival (EFS) was measured by the area over the curve method with tumor events pre-defined by tumor growth exceeding 2 cm[3],[18].
# (§2) The use of 2 mice per arm was based on the previously reported statistical analysis. […] Two additional dose levels of 12, and 24 MBq/kg/fraction were assessed in a subset of models and were administered as stated above. […] Tumors were measured using a digital caliper at the initiation of the study and two times per week during the treatment period. Tumor volumes were calculated as volume = ((diameter^1/2 + diameter^2/2)^3∗0.5236)/1000. Weights were obtained twice weekly and mice were monitored daily for signs of toxicity. […] Tumor response was assessed by best response defined as greatest reduction in tumor volume following the last dose and is presented as percent change in tumor volume. […]
# [2] = system: COG-N-440x; test: Pre-clinical efficacy study, COG-N-440x PDX; assay type: in vivo; details: single mouse
# Description: as §1
# The use of 2 mice per arm was based on the previously reported statistical analysis. PDX tumors were implanted into the right flank of 5 to 6-weeks old female mice weighing about 20–25 grams. […] Two additional dose levels of 12, and 24 MBq/kg/fraction were assessed in a subset of models and were administered as stated above. In two models treated at the 24 MBq/kg/fraction dose level we re-challenged tumor response at the time of tumor progression with an additional 4 dose fractions at 24 MBq/kg/fraction given twice weekly. Doses were prepared in 500 µL total volume. An equal volume of saline was used for the vehicle group. Tumors were measured using a digital caliper at the initiation of the study and two times per week during the treatment period. Tumor volumes were calculated as volume = ([…]∗0.5236)/1000. Weights were obtained twice weekly and mice were monitored daily for signs of toxicity. […] Tumor response was assessed by best response defined as greatest reduction in tumor volume following the last dose and is presented as percent change in tumor volume. Event-free survival was determined by area over the curve method that calculates the time to tumor event, which was defined as tumors reaching or exceeding a size ≥ 2 cm^3.
# Animal studies were performed in female mice due to the lack of sex-related differences for [^211At]PTT tolerability from initial dose response studies performed in female and male mice. Female mice were chosen due to their underlying behavior towards other study subjects that reduced nonstudy-related causes for decreased wellness. Pre-clinical efficacy studies were performed through “single mouse testing” to more closely recapitulate a clinical trial. […] Number size for treatment groups was determined by model tumor growth reproducibility, which was previously shown to have less than 5% normal variation with at least two animals. Statistical tests for tumor response and event-free survival (EFS) were performed as a grouped analysis that included all tumor models treated at each respective dose level (n = 2 per model per dose level). Statistical differences between treatment groups for tumor response was performed by paired-model T-test that compared reduction in tumor volume for the 36 MBq/kg dose level vs. 24 MBq/kg or 12 MBq/kg. Event free survival was measured by area over the curve method to quantify time to event, which was set as tumor growth exceeding 2 cm[3],[19]. Differences in EFS were tested across all treated models for each respective dose level, and against untreated controls, by paired-model ANOVA analysis. Associations of drug target expression and response were performed by linear regression analysis of EFS and PARP1 mRNA expression. Genetic signatures were visually presented as a function of EFS and no statistical tests were applied. Blood and marrow toxicity studies were performed with n = 5 sample sizes and powered to detect >20% differences between untreated controls and treated animals. Results were tested for significance by one-way ANOVA comparison from untreated controls. Marrow colony formation assays were performed in replicates of 2 for each mouse subject, dependent on marrow isolation, and all replicates are included in final analyses. […]
# [3] = system: NB-1691x; test: Pre-clinical efficacy study, NB-1691x PDX; assay type: in vivo; details: 36 MBq/kg/fraction x 4 fractions, single mouse
# Description: as §1, §2
# [4] = system: platelets, white blood cells, lymphocytes, neutrophils; test: Hematological toxicity by complete blood counts; assay type: in vivo, CB-17 SCID mice; set-up: Neutrophils / Lymphocytes / WBC: unit not given here; details: for Lymphocytes / Neutrophils / Platelets / WBC: 72 hours post-treatment, single mouse
# Description: Toxicity studies were done in nontumor bearing CB-17 SCID mice (Taconic Biosciences). […] Each arm had n = 10 mice (5 male, 5 female mice). […] The vehicle group received an equal volume of saline (placebo). Weights were obtained twice weekly and mice were monitored daily for signs of toxicity. […] On target hematological and marrow toxicity which was evaluated by complete blood counts and marrow colony formation assay. An additional study was performed under identical conditions to evaluate additive dose effects. […] Each treatment group was composed of equal numbers of male and female mice to rule out gender-specific effects (n = 4 per treatment group per time point). Mice were followed for signs of acute toxicity for 2 weeks and 4 weeks before euthanasia. An additional group (n = 4) treated at 36 MBq/kg was euthanized after 72 h to assess early signs of toxicity by colony formation assays. This time course was chosen to best capture the nadir of bone marrow suppression. After euthanasia, blood was collected and femurs were dissected and processed for histopathology and bone marrow evaluation.
# Animals were monitored weekly for weight and daily for signs of distress until the time of euthanasia. […] Mice were anesthetized with mixed inhalation isoflurane/oxygen under a nosecone. Terminal cardiac puncture was performed and peripheral blood was transferred to K2EDTA BD Microtainer tubes (BD, San Antonio, TX). Sample volume injected was 20 µL and was pre-specified using the mouse protocol on the instrument.
# [5] = cited from earlier work
# [6] = 12 MBq/kg/fraction x 4 fractions
# [7] = 24 MBq/kg/fraction x 4 fractions
# [8] = 36 MBq/kg/fraction x 4 fractions
compound,measurement,setting,value
"O=C1NCCn2c(-c3ccc([211At])cc3)nc3cccc1c32 [[^211At]PTT, Astatine-211-parthanatine]",EFS by AOC method,[1],83.4773 days and 64.9075 days
same,Tumor response (% growth from study initiation at ~ 200 mm3),[1],-100%
same,EFS by AOC method,[2]; [6],28.3679 days and 26.6227 days
same,Tumor response (% growth from study initiation at ~ 200 mm3),[2]; [6],-72.727% and -75.758%
same,EFS by AOC method,[2]; [7],50.2168 days and 42.5399 days
same,Tumor response (% growth from study initiation at ~ 200 mm3),[2]; [7],-95.833% and -100%
same,EFS by AOC method,[2]; [8],78.8444 days and 65.1924 days
same,Tumor response (% growth from study initiation at ~ 200 mm3),[2]; [8],-100%
same,EFS by AOC method,[3],50.9799 days and 78.469 days
same,Tumor response (% growth from study initiation at ~ 200 mm3),[3],-100%
same,thrombocytopenia,[4]; 3 or less dose fractions at the 36 MBq/kg dose level,did not result in thrombocytopenia
same,Lymphocytes,[4]; 36 MBq/kg x 4 dose fractions,0.28 and 0.26 and 0.38 and 0.27
same,Neutrophils,[4]; 36 MBq/kg x 4 dose fractions,0.42 and 0.22 and 0.16 and 0.34
same,Platelets,[4]; 36 MBq/kg x 4 dose fractions,263 K/uL and 99 K/uL and 201 K/uL and 158 K/uL and 200 K/uL
same,WBC,[4]; 36 MBq/kg x 4 dose fractions,0.78 and 0.26 and 0.58 and 0.62 and 0.7
same,Lymphocytes,[4]; 48 MBq/kg x 4 dose fractions,0.14 and 0.29 and 0.08 and 0.12 and 0.25
same,Neutrophils,[4]; 48 MBq/kg x 4 dose fractions,0.24 and 0.18 and 0.26 and 0.09 and 0.13
same,Platelets,[4]; 48 MBq/kg x 4 dose fractions,200 K/uL and 160 K/uL and 240 K/uL and 190 K/uL and 133 K/uL
same,WBC,[4]; 48 MBq/kg x 4 dose fractions,0.5 and 0.6 and 0.36 and 0.26 and 0.48
same,Lymphocytes,[4]; 60 MBq/kg x 4 dose fractions,0.28 and 0.29 and 0.41 and 0.11
same,Neutrophils,[4]; 60 MBq/kg x 4 dose fractions,0.41 and 0.09 and 0.71 and 0.08
same,Platelets,[4]; 60 MBq/kg x 4 dose fractions,112 K/uL and 166 K/uL and 138 K/uL and 165 K/uL and 116 K/uL
same,WBC,[4]; 60 MBq/kg x 4 dose fractions,0.14 and 0.76 and 0.44 and 1.42 and 0.22
same,Hematological toxicity versus control,"[4]; 72 hours after the final dose fraction, 36, 48, 60 MBq/kg/fraction x 4","significant reductions in platelets, white blood cells, and lymphocytes at all dose levels"
same,time of full recovery from hematological and marrow toxicity,[4]; post-therapy at the MTD,≤ 4 weeks
same,time of full recovery of peripheral blood counts,"[4]; post-treatment, 2 or 3 dose fractions of 36 MBq/kg",4 weeks
same,Effect on neutrophils,[4]; treatment with [^211At]PTT,largely unaffected
same,fold more cytotoxic than the non-radioactive PARP inhibitor analog (KX1),[5],~1 billion
